ChEMBL document CHEMBL3124925, “Further constituents of Galianthe thalictroides (Rubiaceae) and inhibition of DNA topoisomerases I and IIα by its cytotoxic β-carboline alkaloids” (Bioorg Med Chem Lett, 2014)
Values after ≈ are worked out from the molar mass of the structure shown. Active and inactive are the calls of the source. The rule behind the calls is not given here.

Key:
[1] = target: DNA topoisomerase 2-alpha (Homo sapiens) (UniProt P11388); test: Inhibition of recombinant human top2 alpha-mediated kDNA decatenation at 25 uM after 30 mins by agarose gel electrophoresis
Sequence of DNA topoisomerase 2-alpha (Homo sapiens) (P11388 whole entry): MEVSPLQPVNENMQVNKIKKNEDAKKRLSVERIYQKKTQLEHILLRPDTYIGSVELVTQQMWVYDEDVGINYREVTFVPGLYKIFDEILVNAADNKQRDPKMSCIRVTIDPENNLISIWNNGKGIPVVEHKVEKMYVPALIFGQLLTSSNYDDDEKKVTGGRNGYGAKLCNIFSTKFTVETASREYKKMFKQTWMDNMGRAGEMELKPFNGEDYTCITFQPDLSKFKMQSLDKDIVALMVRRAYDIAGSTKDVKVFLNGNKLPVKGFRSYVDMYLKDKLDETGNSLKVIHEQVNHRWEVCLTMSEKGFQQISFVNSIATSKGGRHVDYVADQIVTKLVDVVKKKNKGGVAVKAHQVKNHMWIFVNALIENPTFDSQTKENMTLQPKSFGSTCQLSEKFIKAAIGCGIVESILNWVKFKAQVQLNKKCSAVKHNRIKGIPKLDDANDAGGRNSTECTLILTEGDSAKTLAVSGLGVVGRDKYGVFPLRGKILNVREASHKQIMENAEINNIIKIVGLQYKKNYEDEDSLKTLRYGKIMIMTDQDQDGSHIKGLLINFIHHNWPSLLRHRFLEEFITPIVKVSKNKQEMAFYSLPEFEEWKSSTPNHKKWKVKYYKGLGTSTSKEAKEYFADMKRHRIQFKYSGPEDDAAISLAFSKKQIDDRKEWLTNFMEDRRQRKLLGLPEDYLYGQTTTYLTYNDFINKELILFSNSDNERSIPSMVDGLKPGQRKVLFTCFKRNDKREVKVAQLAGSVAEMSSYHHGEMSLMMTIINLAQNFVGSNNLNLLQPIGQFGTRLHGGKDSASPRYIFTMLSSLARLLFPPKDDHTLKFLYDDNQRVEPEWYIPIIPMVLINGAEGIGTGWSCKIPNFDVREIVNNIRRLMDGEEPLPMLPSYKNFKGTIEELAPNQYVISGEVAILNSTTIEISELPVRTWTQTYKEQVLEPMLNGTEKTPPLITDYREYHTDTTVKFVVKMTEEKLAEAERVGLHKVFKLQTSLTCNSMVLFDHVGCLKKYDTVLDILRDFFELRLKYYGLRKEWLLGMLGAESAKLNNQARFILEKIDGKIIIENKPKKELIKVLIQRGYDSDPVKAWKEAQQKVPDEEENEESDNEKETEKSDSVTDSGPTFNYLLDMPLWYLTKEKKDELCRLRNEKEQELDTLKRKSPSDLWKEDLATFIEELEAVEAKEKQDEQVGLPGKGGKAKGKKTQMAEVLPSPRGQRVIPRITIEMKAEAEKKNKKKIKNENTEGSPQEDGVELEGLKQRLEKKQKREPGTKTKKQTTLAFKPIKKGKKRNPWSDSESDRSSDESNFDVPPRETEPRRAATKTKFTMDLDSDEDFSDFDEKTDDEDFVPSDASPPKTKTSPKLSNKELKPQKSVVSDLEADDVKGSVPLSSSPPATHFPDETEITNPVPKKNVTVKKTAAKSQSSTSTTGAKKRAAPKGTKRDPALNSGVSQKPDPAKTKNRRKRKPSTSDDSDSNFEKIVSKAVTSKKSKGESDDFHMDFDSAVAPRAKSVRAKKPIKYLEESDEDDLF

[2] = target: DNA topoisomerase 2-alpha (Homo sapiens) (UniProt P11388); test: Inhibition of recombinant human top2 alpha-mediated kDNA decatenation compound added post enzyme-DNA incubation by agarose gel electrophoresis
[3] = target: T1, DNA topoisomerase 1 (Homo sapiens) (UniProt P11387); test: Inhibition of recombinant human DNA top1-mediated relaxation of pBR322 plasmid at 25 uM after 30 mins by agarose gel electrophoresis
T1 sequence (whole entry): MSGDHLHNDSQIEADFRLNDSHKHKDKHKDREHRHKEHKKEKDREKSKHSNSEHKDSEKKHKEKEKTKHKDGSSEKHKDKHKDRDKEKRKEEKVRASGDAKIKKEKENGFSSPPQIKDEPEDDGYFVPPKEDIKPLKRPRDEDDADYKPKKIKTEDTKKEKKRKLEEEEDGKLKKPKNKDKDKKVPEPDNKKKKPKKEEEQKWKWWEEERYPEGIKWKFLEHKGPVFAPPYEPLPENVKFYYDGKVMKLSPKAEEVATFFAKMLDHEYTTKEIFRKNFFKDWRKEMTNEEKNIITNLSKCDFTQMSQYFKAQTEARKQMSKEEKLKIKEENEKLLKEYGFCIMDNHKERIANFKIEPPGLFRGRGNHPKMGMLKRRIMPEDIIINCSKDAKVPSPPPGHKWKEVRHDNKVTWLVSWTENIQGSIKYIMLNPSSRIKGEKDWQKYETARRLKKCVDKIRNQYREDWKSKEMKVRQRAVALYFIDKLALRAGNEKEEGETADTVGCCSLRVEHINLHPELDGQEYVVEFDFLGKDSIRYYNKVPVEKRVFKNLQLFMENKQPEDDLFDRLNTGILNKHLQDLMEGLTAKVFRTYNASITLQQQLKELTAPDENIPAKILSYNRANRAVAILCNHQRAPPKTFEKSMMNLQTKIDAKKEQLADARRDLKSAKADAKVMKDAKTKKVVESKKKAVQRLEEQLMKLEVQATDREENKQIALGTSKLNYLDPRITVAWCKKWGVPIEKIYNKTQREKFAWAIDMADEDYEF

[4] = target: DNA topoisomerase 2-alpha (Homo sapiens) (UniProt P11388); test: Inhibition of recombinant human top2 alpha-mediated kDNA decatenation compound added post enzyme-DNA incubation by agarose gel electrophoresis in presence of DTT
786-0 = test: Cytotoxicity against human 786-0 cells assessed as growth inhibition by SRB assay; format: functional, cell-based
UACC-62 = test: Cytotoxicity against human UACC62 cells assessed as growth inhibition by SRB assay; format: functional, cell-based
MCF7 = test: Cytotoxicity against human MCF7 cells assessed as growth inhibition by SRB assay; format: functional, cell-based
B16-F10 = test: Cytotoxicity against mouse B16F10 cells assessed as growth inhibition by SRB assay; format: functional
[5] = target: DNA topoisomerase 2-alpha (Homo sapiens) (UniProt P11388); test: Inhibition of recombinant human top2 alpha-mediated kDNA decatenation at 1 uM after 30 mins by agarose gel electrophoresis
[6] = target: T1, DNA topoisomerase 1 (Homo sapiens); test: Inhibition of recombinant human DNA top1-mediated relaxation of pBR322 plasmid at 1 uM after 30 mins by agarose gel electrophoresis
[7] = target: T1, DNA topoisomerase 1 (Homo sapiens); test: Inhibition of recombinant human DNA top1-mediated relaxation of pBR322 plasmid at 100 uM after 30 mins by agarose gel electrophoresis
[8] = target: DNA topoisomerase 2-alpha (Homo sapiens) (UniProt P11388); conditions: 100 uM
Description: Inhibition of recombinant human top2 alpha-mediated kDNA decatenation at 100 uM after 30 mins by agarose gel electrophoresis

Row | inhibition [2] | inhibition [4] | SMILES | GI50 (B16-F10) [µg/mL] | GI50 (786-0) [µg/mL] | GI50 (UACC-62) [µg/mL] | GI50 (MCF7) [µg/mL] | further results
1 | Active | Active | COc1cccc2[nH]c3c([C@H]4[C@H](C(C)(C)O)CC[C@@]4(O)CO)nccc3c12 |  |  |  |  | inhibition [1]: Active; inhibition [3]: Active; IC50 (786-0): 0.22 µg/mL (≈ 0.594 µM); IC50 (UACC-62): 1.7 µg/mL (≈ 4.59 µM); IC50 (MCF7): 1.8 µg/mL (≈ 4.86 µM)
2 | Active | Active | COc1cccc2[nH]c3c([C@H]4[C@H](C(C)(C)O)CC[C@]4(C)O)nccc3c12 | 19.5 (≈ 55 µM) | 3 (≈ 8.46 µM) | 2.5 (≈ 7.05 µM) | 3 (≈ 8.46 µM) | inhibition [5]: Active; inhibition [6]: Active
3 |  |  | CCc1c2c(nc3ccc(OC(=O)N4CCC(N5CCCCC5)CC4)cc13)-c1cc3c(c(=O)n1C2)COC(=O)[C@]3(O)CC |  |  |  |  | inhibition [7]: Active
4 |  |  | COc1cccc2c1C(=O)c1c(O)c3c(c(O)c1C2=O)C[C@@](O)(C(=O)CO)C[C@@H]3O[C@H]1C[C@H](N)[C@H](O)[C@H](C)O1.Cl [DOXORUBICIN HYDROCHLORIDE] | 0.22 | 0.43 | 0.25 | 0.23 | 
5 | Active | Active | COc1cc([C@@H]2c3cc4c(cc3[C@@H](O[C@@H]3O[C@@H]5CO[C@@H](C)O[C@H]5[C@H](O)[C@H]3O)[C@H]3COC(=O)[C@H]23)OCO4)cc(OC)c1O |  |  |  |  | inhibition [8]: Active
